# Results taken from PubChem BioAssay AID212 (DTP/NCI, 2004).
# Values joined by “and” are separate entries in the source; they are usually repeats but may differ in a detail not shown here. Equal entries are not always repeated. Results filed as inconclusive are left out.
# Tested on: BDF1 mice, colon carcinoma 38 sc, T/C %
# Assay: NCI In Vivo Anticancer Drug Screen. Data for tumor model Colon Carcinoma 38 (subcutaneous) in B6D2F1 (BDF1) mice
# Protocol: The antitumor activity of compounds was measured in mice bearing transplantable tumors. Survival or tumor size were measured and the results are expressed as the measurement made in the treated group (T) divided by the measurement made in the vehicle treated control group (C). The tumor model used in this assay is Colon Carcinoma 38 (subcutaneous) in B6D2F1 (BDF1) mice
# [1] = endpoint: median tumor weight (est.), dose: 6.25 mg/kg/injection, schedule: Q07DX002 (ip), vehicle: saline, higher = larger tumour
# [2] = endpoint: median tumor weight (est.), dose: 200.0 mg/kg/injection, schedule: Q07DX002 (ip), vehicle: saline, higher = larger tumour
# [3] = endpoint: median tumor weight (est.), dose: 12.5 mg/kg/injection, schedule: Q07DX002 (ip), vehicle: saline, higher = larger tumour
# [4] = endpoint: median tumor weight (est.), dose: 25.0 mg/kg/injection, schedule: Q07DX002 (ip), vehicle: saline, higher = larger tumour
# [5] = endpoint: median tumor weight (est.), dose: 200.0 mg/kg/injection, schedule: Q07DX002 (ip), vehicle: Klucel (hydroxypropylcellulose) (HPC), higher = larger tumour
# [6] = endpoint: median tumor weight (est.), dose: 400.0 mg/kg/injection, schedule: Q07DX002 (ip), vehicle: Klucel (hydroxypropylcellulose) (HPC), higher = larger tumour
compound,measurement,setting,value
CCOC(C)C(/C=N/NC(N)=S)=NNC(N)=S (configuration not stated),T/C,"endpoint: median tumor weight (est.), dose: 12.5 mg/kg/injection, schedule: Q07DX003 (ip), vehicle: saline with Tween-80, higher = larger tumour",111 % of control
same,T/C,"endpoint: median tumor weight (est.), dose: 25.0 mg/kg/injection, schedule: Q07DX003 (ip), vehicle: saline with Tween-80, higher = larger tumour",61 % of control
same,T/C,"endpoint: median tumor weight (est.), dose: 50.0 mg/kg/injection, schedule: Q07DX003 (ip), vehicle: saline with Tween-80, higher = larger tumour",99 % of control
same,T/C,"endpoint: median tumor weight (est.), dose: 100.0 mg/kg/injection, schedule: Q07DX003 (ip), vehicle: saline with Tween-80, higher = larger tumour",155 % of control
same,T/C,"endpoint: median tumor weight (est.), dose: 200.0 mg/kg/injection, schedule: Q07DX003 (ip), vehicle: saline with Tween-80, higher = larger tumour",73 % of control
same,T/C,"endpoint: median tumor weight (est.), dose: 400.0 mg/kg/injection, schedule: Q07DX003 (ip), vehicle: saline with Tween-80, higher = larger tumour",66 % of control
CCCCCCCCCCCCCCCCCC(=O)OCC(=O)OCC(=O)[C@]1(O)Cc2c(O)c3c(c(O)c2[C@@H](OC2CC(N)C(O)C(C)O2)C1)C(=O)c1c(OC)cccc1C3=O (some centres not stated),T/C,"endpoint: median survival time, dose: 11.5 mg/kg/injection, schedule: Q07DX002 (iv), vehicle: saline, higher = longer survival",111 % of control
same,T/C,"endpoint: median tumor weight (est.), dose: 1.69 mg/kg/injection, schedule: Q07DX002 (ip), vehicle: saline with Tween-80, higher = larger tumour",70 % of control
same,T/C,"endpoint: median tumor weight (est.), dose: 3.38 mg/kg/injection, schedule: Q07DX002 (ip), vehicle: saline with Tween-80, higher = larger tumour",93 % of control
same,T/C,"endpoint: median tumor weight (est.), dose: 6.75 mg/kg/injection, schedule: Q07DX002 (ip), vehicle: saline with Tween-80, higher = larger tumour",79 % of control and 89 % of control and 97 % of control
same,T/C,"endpoint: median tumor weight (est.), dose: 27.0 mg/kg/injection, schedule: Q07DX002 (ip), vehicle: saline with Tween-80, higher = larger tumour",18 % of control and 37 % of control
CC(=O)Oc1c(C)[nH]ccc1=O,T/C,[1],107 % of control
same,T/C,[2],107 % of control
CCN(CC)C(C)(C)C(=O)/C=C/c1ccccc1,T/C,"endpoint: median tumor weight (est.), dose: 31.25 mg/kg/injection, schedule: Q07DX002 (ip), vehicle: saline with Tween-80, higher = larger tumour",68 % of control
same,T/C,"endpoint: median tumor weight (est.), dose: 62.5 mg/kg/injection, schedule: Q07DX002 (ip), vehicle: saline with Tween-80, higher = larger tumour",39 % of control
same,T/C,"endpoint: median tumor weight (est.), dose: 125.0 mg/kg/injection, schedule: Q07DX002 (ip), vehicle: saline with Tween-80, higher = larger tumour",78 % of control
same,T/C,"endpoint: median tumor weight (est.), dose: 250.0 mg/kg/injection, schedule: Q07DX002 (ip), vehicle: saline with Tween-80, higher = larger tumour",34 % of control
CCOC(=O)c1cn(C)c2c1C(O)=C(C(=O)OC)CC(=O)N2,T/C,"endpoint: median tumor weight (est.), dose: 50.0 mg/kg/injection, schedule: Q07DX002 (ip), vehicle: saline with Tween-80, higher = larger tumour",81 % of control
same,T/C,"endpoint: median tumor weight (est.), dose: 100.0 mg/kg/injection, schedule: Q07DX002 (ip), vehicle: saline with Tween-80, higher = larger tumour",119 % of control
same,T/C,"endpoint: median tumor weight (est.), dose: 400.0 mg/kg/injection, schedule: Q07DX002 (ip), vehicle: saline with Tween-80, higher = larger tumour",88 % of control
same,T/C,"endpoint: median tumor weight (est.), dose: 800.0 mg/kg/injection, schedule: Q07DX002 (ip), vehicle: saline with Tween-80, higher = larger tumour",97 % of control
CCCCCCCCCCCCCCCC(=O)Nc1ccn(C2OC(CO)C(O)C2O)c(=O)n1 (configuration not stated),T/C,[3],41 % of control
same,T/C,[4],88 % of control
same,T/C,"endpoint: median tumor weight (est.), dose: 50.0 mg/kg/injection, schedule: Q07DX002 (ip), vehicle: saline, higher = larger tumour",50 % of control
same,T/C,"endpoint: median tumor weight (est.), dose: 100.0 mg/kg/injection, schedule: Q07DX002 (ip), vehicle: saline, higher = larger tumour",5 % of control
same,T/C,[2],16 % of control
same,T/C,"endpoint: median tumor weight (est.), dose: 400.0 mg/kg/injection, schedule: Q07DX002 (ip), vehicle: saline, higher = larger tumour",1 % of control
Cc1cc(=O)c2cccc(CC(=O)O)c2o1,T/C,"endpoint: median tumor weight (est.), dose: 100.0 mg/kg/injection, schedule: Q07DX002 (ip), vehicle: Klucel (hydroxypropylcellulose) (HPC), higher = larger tumour",119 % of control
same,T/C,[5],114 % of control
same,T/C,[6],76 % of control
CCC1CN2C(=N1)c1ccccc1-c1cc(Cl)ccc12 (configuration not stated),T/C,"endpoint: median tumor weight (est.), dose: 3.13 mg/kg/injection, schedule: Q07DX003 (ip), vehicle: suspension in saline, higher = larger tumour",83 % of control
same,T/C,"endpoint: median tumor weight (est.), dose: 6.25 mg/kg/injection, schedule: Q07DX003 (ip), vehicle: suspension in saline, higher = larger tumour",93 % of control
same,T/C,"endpoint: median tumor weight (est.), dose: 12.5 mg/kg/injection, schedule: Q07DX003 (ip), vehicle: suspension in saline, higher = larger tumour",118 % of control
C[C@@H]1C[C@H]2[C@@H]3CCC4=CC(=O)C=C[C@]4(C)[C@@]3(F)[C@@H](O)C[C@]2(C)[C@@]1(O)C(=O)CO,T/C,"endpoint: median tumor weight (est.), dose: 6.25 mg/kg/injection, schedule: Q07DX002 (ip), vehicle: Klucel (hydroxypropylcellulose) (HPC), higher = larger tumour",156 % of control
same,T/C,[5],53 % of control and 58 % of control
same,T/C,[6],25 % of control
CC[C@@]1(O)C(=O)OCc2c1cc1n(c2=O)Cc2cc3ccccc3nc2-1,T/C,"endpoint: median tumor weight (est.), dose: 1.5 mg/kg/injection, schedule: Q07DX002 (ip), vehicle: saline with Tween-80, higher = larger tumour",100 % of control
same,T/C,"endpoint: median tumor weight (est.), dose: 3.0 mg/kg/injection, schedule: Q07DX002 (ip), vehicle: saline with Tween-80, higher = larger tumour",92 % of control
same,T/C,"endpoint: median tumor weight (est.), dose: 6.0 mg/kg/injection, schedule: Q07DX002 (ip), vehicle: saline with Tween-80, higher = larger tumour",75 % of control
same,T/C,"endpoint: median tumor weight (est.), dose: 12.0 mg/kg/injection, schedule: Q07DX002 (ip), vehicle: saline with Tween-80, higher = larger tumour",90 % of control
same,T/C,"endpoint: median tumor weight (est.), dose: 24.0 mg/kg/injection, schedule: Q07DX002 (ip), vehicle: saline with Tween-80, higher = larger tumour",95 % of control
O=C1CN(Cc2ccc3c(c2)OCO3)NO1,T/C,"endpoint: median tumor weight (est.), dose: 12.5 mg/kg/injection, schedule: Q07DX002 (ip), vehicle: saline with Tween-80, higher = larger tumour",76 % of control and 89 % of control
same,T/C,"endpoint: median tumor weight (est.), dose: 25.0 mg/kg/injection, schedule: Q07DX002 (ip), vehicle: saline with Tween-80, higher = larger tumour",81 % of control and 84 % of control
O=C(O)c1ccc(C(=O)O)c(C(=O)O)c1.[NH-]C1CCCCC1[NH-].[Pt+2],T/C,"endpoint: median tumor weight (est.), dose: 1.56 mg/kg/injection, schedule: Q07DX002 (ip), vehicle: sodium bicarbonate, higher = larger tumour",110 % of control
same,T/C,"endpoint: median tumor weight (est.), dose: 3.12 mg/kg/injection, schedule: Q07DX002 (ip), vehicle: sodium bicarbonate, higher = larger tumour",124 % of control
same,T/C,"endpoint: median tumor weight (est.), dose: 3.12 mg/kg/injection, schedule: Q07DX003 (ip), vehicle: sodium bicarbonate, higher = larger tumour",20 % of control
same,T/C,"endpoint: median tumor weight (est.), dose: 6.25 mg/kg/injection, schedule: Q07DX002 (ip), vehicle: sodium bicarbonate, higher = larger tumour",70 % of control
same,T/C,"endpoint: median tumor weight (est.), dose: 6.25 mg/kg/injection, schedule: Q07DX003 (ip), vehicle: sodium bicarbonate, higher = larger tumour",24 % of control
same,T/C,"endpoint: median tumor weight (est.), dose: 12.5 mg/kg/injection, schedule: Q07DX003 (ip), vehicle: sodium bicarbonate, higher = larger tumour",10 % of control
same,T/C,"endpoint: median tumor weight (est.), dose: 25.0 mg/kg/injection, schedule: Q07DX002 (ip), vehicle: sodium bicarbonate, higher = larger tumour",20 % of control and 36 % of control and 44 % of control
same,T/C,"endpoint: median tumor weight (est.), dose: 50.0 mg/kg/injection, schedule: Q07DX002 (ip), vehicle: sodium bicarbonate, higher = larger tumour",33 % of control
CC(=O)O[C@@H]1CO[C@H]2O[C@H]3[C@@H](C(C=O)=C[C@H](O)[C@@H]4C5=C(C(C)C)CC[C@]5(C)CC[C@@]34C)[C@@]2(O)C1=O,T/C,"endpoint: median tumor weight (est.), dose: 1.5 mg/kg/injection, schedule: Q07DX002 (ip), vehicle: Klucel (hydroxypropylcellulose) (HPC), higher = larger tumour",57 % of control
same,T/C,"endpoint: median tumor weight (est.), dose: 3.0 mg/kg/injection, schedule: Q07DX002 (ip), vehicle: Klucel (hydroxypropylcellulose) (HPC), higher = larger tumour",80 % of control
same,T/C,"endpoint: median tumor weight (est.), dose: 6.0 mg/kg/injection, schedule: Q07DX002 (ip), vehicle: Klucel (hydroxypropylcellulose) (HPC), higher = larger tumour",61 % of control
same,T/C,"endpoint: median tumor weight (est.), dose: 12.0 mg/kg/injection, schedule: Q07DX002 (ip), vehicle: Klucel (hydroxypropylcellulose) (HPC), higher = larger tumour",86 % of control
NC(Cc1ccc(N(CCCl)CCCl)cc1)C(=O)O (configuration not stated),T/C,"endpoint: median tumor weight (est.), dose: 1.0 mg/kg/injection, schedule: Q07DX002 (ip), vehicle: Klucel (hydroxypropylcellulose) (HPC), higher = larger tumour",71 % of control
same,T/C,"endpoint: median tumor weight (est.), dose: 1.0 mg/kg/injection, schedule: Q07DX002 (ip), vehicle: water, higher = larger tumour",84 % of control
same,T/C,"endpoint: median tumor weight (est.), dose: 2.0 mg/kg/injection, schedule: Q07DX002 (ip), vehicle: water, higher = larger tumour",97 % of control
same,T/C,"endpoint: median tumor weight (est.), dose: 4.0 mg/kg/injection, schedule: Q07DX002 (ip), vehicle: water, higher = larger tumour",59 % of control
same,T/C,"endpoint: median tumor weight (est.), dose: 8.0 mg/kg/injection, schedule: Q07DX002 (ip), vehicle: Klucel (hydroxypropylcellulose) (HPC), higher = larger tumour",47 % of control and 51 % of control and 53 % of control
same,T/C,"endpoint: median tumor weight (est.), dose: 8.0 mg/kg/injection, schedule: Q07DX002 (ip), vehicle: water, higher = larger tumour",37 % of control
same,T/C,"endpoint: median tumor weight (est.), dose: 16.0 mg/kg/injection, schedule: Q07DX002 (ip), vehicle: Klucel (hydroxypropylcellulose) (HPC), higher = larger tumour",9 % of control and 14 % of control
CCOC(=O)NC1=C(N2CC2)C(=O)C(NC(=O)OCC)=C(N2CC2)C1=O,T/C,"endpoint: median tumor weight (est.), dose: 0.78 mg/kg/injection, schedule: Q07DX002 (ip), vehicle: saline, higher = larger tumour",98 % of control
same,T/C,"endpoint: median tumor weight (est.), dose: 0.78 mg/kg/injection, schedule: Q07DX002 (ip), vehicle: suspension in saline, higher = larger tumour",102 % of control
same,T/C,"endpoint: median tumor weight (est.), dose: 1.56 mg/kg/injection, schedule: Q07DX002 (ip), vehicle: saline, higher = larger tumour",94 % of control
same,T/C,"endpoint: median tumor weight (est.), dose: 1.56 mg/kg/injection, schedule: Q07DX002 (ip), vehicle: suspension in saline, higher = larger tumour",95 % of control
same,T/C,"endpoint: median tumor weight (est.), dose: 3.13 mg/kg/injection, schedule: Q07DX002 (ip), vehicle: suspension in saline, higher = larger tumour",95 % of control
same,T/C,[1],77 % of control
same,T/C,"endpoint: median tumor weight (est.), dose: 6.25 mg/kg/injection, schedule: Q07DX002 (ip), vehicle: suspension in saline, higher = larger tumour",85 % of control
same,T/C,[3],69 % of control
same,T/C,[4],12 % of control
same,T/C,"endpoint: median tumor weight (est.), dose: 25.0 mg/kg/injection, schedule: Q07DX003 (ip), vehicle: saline, higher = larger tumour",32 % of control
